The numbers were not newly measured in patent publication US20250195551A1 (L4 BIO LLC, priority 2023, published 2025), which cites them from elsewhere.

The EC50 is the concentration giving half of the maximal effect.

This data set has as its target T1, purinergic P2X4 receptors (Homo sapiens, UniProt Q99571).
T1 sequence (Q99571 1-388): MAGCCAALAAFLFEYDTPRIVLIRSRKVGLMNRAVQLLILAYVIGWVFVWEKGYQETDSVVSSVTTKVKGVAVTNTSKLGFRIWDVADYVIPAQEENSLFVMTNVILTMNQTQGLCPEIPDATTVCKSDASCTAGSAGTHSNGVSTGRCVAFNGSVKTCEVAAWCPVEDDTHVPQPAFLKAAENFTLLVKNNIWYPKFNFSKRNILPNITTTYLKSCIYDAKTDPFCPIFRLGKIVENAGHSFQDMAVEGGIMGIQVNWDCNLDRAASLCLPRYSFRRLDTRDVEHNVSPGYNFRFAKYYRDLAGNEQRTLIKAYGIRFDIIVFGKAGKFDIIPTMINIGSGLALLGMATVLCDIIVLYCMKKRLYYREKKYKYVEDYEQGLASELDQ
To be noted: interaction with purinergic P2X4 receptors in humans; cited from earlier work.

ivermectin: the EC50 is approximately 250 nM.
